The record followed here is US20230293629A1, “METHODS FOR ATTENUATING RELEASE OF INFLAMMATORY MEDIATORS AND PEPTIDES USEFUL THEREIN” (BIOMARCK PHARMACEUTICALS LTD., priority 2006, published 2023).

One assay has as its system U937 cells. The experiment in a line: PMA-stimulated lysozyme secretion by U937 cells. Type of assay: cell-based, human. The conditions noted are these: for % Inhibition Lysozyme: 50 μM test peptide, two hour incubation with 100 nM PMA, U937 cells. An outline of the steps: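 U937 cells at 2.5×10^6 cells/ml in phenol red-free RPMI-1640 were preincubated 10 min at 37 °C with 50 μM test peptide, then stimulated 2 h with 100 nM PMA. Secreted lysozyme was measured by decrease in A450 of Micrococcus lysodeikticus suspension (pH 7.0) against an egg white lysozyme standard, expressed as percentage of PMA control.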

Assay [1] has as its system isolated human neutrophils. The experiment in a line: MPO secretion from isolated human neutrophils stimulated with PMA + 8-Br-cGMP (FIG. 7, 8, 9). Type of assay: cell-based. The conditions noted are these: for MPO secretion: FIG. 7, 100 nM PMA and 10 μM 8-Br-cGMP.

Where a SMILES comes first, the peptide text is derived from it. Where no end group is shown, it is not given here. The star is where a group is joined. Myristoyl = CCCCCCCCCCCCCC(=O)*

As for `CCCCCCCCCCCCCC(=O)NCC(=O)N[C@@H](C)C(=O)N[C@@H](CCC(N)=O)C(=O)N[C@@H](Cc1ccccc1)C(=O)N[C@@H](CO)C(=O)N[C@@H](CCCCN)C(=O)N[C@H](C(=O)N[C@@H](C)C(=O)N[C@@H](C)C(=O)N[C@@H](CCCCN)C(=O)NCC(=O)N[C@@H](CCC(=O)O)C(=O)N[C@@H](C)C(=O)N[C@@H](C)C(=O)N[C@@H](C)C(=O)N[C@@H](CCC(=O)O)C(=O)N[C@@H](CCCNC(=N)N)C(=O)N1CCC[C@H]1C(=O)NCC(=O)N[C@@H](CCC(=O)O)C(=O)N[C@@H](C)C(=O)N[C@@H](C)C(=O)N[C@H](C(=O)N[C@@H](C)C(=O)O)C(C)C)[C@@H](C)O` [MANS] (Myristoyl-GAQFSKTAAKGEAAAERPGEAAVA-OH; C-terminus assumed), the “reduction in lysozyme secretion relative to the PMA control reference” value with U937 cells (10 μM, 1 hour) is recorded as “about 20%”; in the assay with U937 cells (10 μM, 2 hour), “about 20%”; in the assay on U937 cells (50 μM, 1 hour), “about 20%”; with U937 cells (50 μM, 2 hour), “about 25%”; in the assay on U937 cells (100 μM, 1 hour) it was “about 45%”; in the assay with U937 cells (100 μM, 2 hour), “about 40%”. For the same molecule, the “lysozyme secretion relative to control as 100%” value is reported as “about 170%” in the assay on U937 cells (10 μM, 1 hour, PMA control reference about 210%); “about 195%” with U937 cells (10 μM, 2 hour, PMA control reference about 240%); “about 170%” in the assay with U937 cells (50 μM, 1 hour, PMA control reference about 210%); “about 185%” in the assay on U937 cells (50 μM, 2 hour, PMA control reference about 240%); “about 115%” with U937 cells (100 μM, 1 hour, PMA control reference about 210%); “about 140%” in the assay on U937 cells (100 μM, 2 hour, PMA control reference about 240%). Also, the “% Inhibition Lysozyme” value in the assay on U937 cells amounted to 40.8%. Moreover, the MPO secretion entry is reported as “slight decrease” in assay [1] (10 μM peptide) and “decreased secretion of MPO to control levels” in assay [1] (100 μM peptide).
In the case of `CCCCCCCCCCCCCC(=O)O[C@@H]1[C@@H](C)[C@@]2(O)[C@@H](C=C(CO)C[C@]3(O)C(=O)C(C)=C[C@@H]23)[C@@H]2C(C)(C)[C@]12OC(C)=O` [PMA, phorbol 12-myristate 13-acetate], in assay [1] (FIG. 8, PMA alone, enhanced concentration-dependently by co-stimulation with 8-Br-cGMP), the “MPO secretion from LPS-stimulated human neutrophils” value is on record as “small increase”.
In the case of `CCCCCCCCCCCCCC(=O)NCC(=O)N[C@H](C(=O)N[C@@H](C)C(=O)N1CCC[C@H]1C(=O)N[C@@H](C)C(=O)N[C@@H](C)C(=O)N[C@@H](CCC(=O)O)C(=O)NCC(=O)N[C@@H](C)C(=O)NCC(=O)N[C@@H](C)C(=O)N[C@@H](CCC(=O)O)C(=O)N[C@H](C(=O)N[C@@H](CCCCN)C(=O)N[C@@H](CCCNC(=N)N)C(=O)N[C@@H](C)C(=O)N[C@@H](CO)C(=O)N[C@@H](C)C(=O)N[C@@H](CCC(=O)O)C(=O)N[C@@H](C)C(=O)N[C@@H](CCCCN)C(=O)N[C@@H](CCC(N)=O)C(=O)N[C@@H](C)C(=O)N[C@@H](Cc1ccccc1)C(=O)O)C(C)C)[C@@H](C)O` [RNS, reference compound] (Myristoyl-GTAPAAEGAGAEVKRASAEAKQAF-OH; C-terminus assumed), the “% Inhibition Lysozyme” value with U937 cells worked out at 0%. The “effect on PMA-enhanced lysozyme secretion” value in the assay with U937 cells (any of the time points or concentrations tested) is reported as “did not affect”. In assay [1] (10 or 100 μM peptide), the MPO secretion result is given as “no effect”.
As for Ac-GAQFSKTAAK [Ac-GAQFSKTAAK], the “% Inhibition Lysozyme” value in the assay with U937 cells turned out to be 41.2%.
With Ac-GAQFSKTAAKGEAAAERPGEAAVA, the “% Inhibition Lysozyme” value in the assay with U937 cells is 39.8%.
